Laboratory results: US20060258729A1, “Antibacterial pyrazole carboxylic acid hydrazides” (priority 2002, published 2006)

Experiments:
[1] = test system: Staphylococcus aureus strain IP 8; assay: Inhibition of bacterial growth (MIC), Sa; type: cell-based; conditions: 16 to 18 hours, 37° C.
Experimental: (§1) Each compound was assayed against a panel of a strain of Bacillus subtilis, of strains of antibiotic-resistant and sensitive Enterococcus and Staphylococcus species, and of a strain of the Gram-negative bacterium Escherichia coli. Compounds were dissolved in DMSO at 100× the desired highest concentration and added to one well of a 96-well microassay plate. Two-fold serial drug dilutions were made across the plate in DMSO to yield 11 concentrations (usually 80-0.078 μg/mL) plus an untreated control. Drugs were then transferred to fresh plates using 1.5 μL per well. Log phase cultures were diluted to yield a concentration of 1×10^5 colony forming units/mL in either LB or BHI medium and transferred to the plates containing drug for a final volume of 150 μL. Each well, including the DMSO controls, contained a final concentration of 1% DMSO. Plates were incubated with shaking at 37° C. for 16 to 18 hours. Cell growth was determined by measuring optical density (570 nm, 1 cm path length) in a microplate reader. MIC (minimum inhibitory concentration) is equivalent to the lowest concentration at which growth is not observed. The bacterial strains and MIC determinations have been well characterized and are described elsewhere (Tarantino et al., Antimicrob. Agents Chemother., 43: 1982-1987 (1999); Daly et al., Antimicrob. Agents Chemother., 44: 2217-2221 (2000)).

[2] = test system: S. aureus Smith strain; assay: Inhibition of bacterial growth (MIC), Sm; type: cell-based, Staphylococcus aureus; conditions: 16 to 18 hours, 37° C.
Experimental: as §1

[3] = target: T1, E. coli pol IIIE (Escherichia coli, UniProt P10443); assay: DNA polymerase assay, E. coli pol IIIE; type: biochemical; conditions: 80 μg/mL (190-260 μM) final concentration; all four dNTPs
T1 construct: purchased Enzyco, Denver, Colo
Experimental: (§2) Recombinant, purified pol IIIC and pol IIIE from Bacillus subtilis were obtained using known methods (Hammond et al., Gene 98: 29-36 (1991), regarding pol IIIC; Barnes et al., J. Bacteriol. 184, 3834-3838 (2002), regarding pol IIIE). Recombinant, purified pol IIIE from Escherichia coli was obtained from a commercial source (Enzyco, Denver, Colo.). The enzyme assays were performed in 96-well plate format using the same assay mix for all three enzymes. Each 25 μL assay contained 30 mM Tris, pH 7.5, 10 mM magnesium acetate, 4 mM dithiothreitol, 20% glycerol, with 10 μM dATP, dCTP, dGTP and dTTP (3H-labelled at 1.44 Ci/mmole) and 0.4 mg/mL activated calf thymus DNA as substrates. Dilutions of compounds were added to the plate in 1% DMSO (1 μL/well). Assays were initiated by the addition of 0.025 to 0.06 units of enzyme (1 unit is the amount required to incorporate 250 pmoles of [^3H] dTMP in a standard assay), incubated for 10 min at 30° C. and terminated by the addition of 200 μL of cold 10% trichloroacetic acid, 10 mM sodium pyrophosphate. Precipitated labeled DNA was collected on glass fiber filter plates that had been pre-wet with ice cold 1 M HCl, 100 mM sodium pyrophosphate. The plates were washed with the HCl solution followed by ice cold 90% ethanol and then dried and counted in a liquid scintillation counter. The calculated IC50 is the concentration needed to inhibit 50% of the DNA polymerase activity in the presence of all four dNTP substrates. In addition, percent inhibition values are calculated as the percent reduction in the activity of a DMSO (diluent) control.

[4] = test system: Enterococcus faecalis strain 29212; assay: Inhibition of bacterial growth (MIC), Efcl; type: cell-based; conditions: 16 to 18 hours, 37° C.
Experimental: as §1

[5] = target: T2, B. subtilis pol IIIC (Bacillus subtilis, UniProt P13267); assay: DNA polymerase assay, B. subtilis pol IIIC; type: biochemical; conditions: 80 μg/mL (190-260 μM) final concentration; all four dNTPs
T2 construct: made in house
Experimental: as §2, with “Each 25 μL assay contained 30 mM Tris, pH 7.5, 10 mM magnesium acetate, 4 mM dithiothreitol, 20% glycerol, with 10 μM dATP, dCTP, dGTP and dTTP (3H-labelled at 1.44 Ci/mmole) and 0.4 mg/mL activated calf thymus DNA as substrates.” left out, “The calculated IC50 is the concentration needed to inhibit 50% of the DNA polymerase activity in the presence of all four dNTP substrates.” left out

[6] = test system: Escherichia coli strain J53; assay: Inhibition of bacterial growth (MIC), Ec; type: cell-based; conditions: 16 to 18 hours, 37° C.
Experimental: as §1

[7] = test system: E. faecium clinical isolate; assay: Inhibition of bacterial growth (MIC), Efcm; type: cell-based; conditions: 16 to 18 hours, 37° C.
Experimental: as §1

[8] = test system: vancomycin-resistant Enterococcus strain B42762; assay: Inhibition of bacterial growth (MIC), VRE; type: cell-based; conditions: 16 to 18 hours, 37° C.
Experimental: as §1

[9] = test system: Bacillus subtilis strain BD54; assay: Inhibition of bacterial growth (MIC), Bs; type: cell-based; conditions: 16 to 18 hours, 37° C.
Experimental: as §1

[10] = target: T3, B. subtilis pol IIIE (Bacillus subtilis, UniProt O34623); assay: DNA polymerase assay, B. subtilis pol IIIE; type: biochemical; conditions: 80 μg/mL (190-260 μM) final concentration; all four dNTPs
T3 construct: made in house
Experimental: as §2

[11] = test system: methicillin-resistant S. aureus strain 1094; assay: Inhibition of bacterial growth (MIC), MRSA; type: cell-based, Staphylococcus aureus; conditions: 16 to 18 hours, 37° C.
Experimental: as §1

T2 sequence (P13267 whole entry): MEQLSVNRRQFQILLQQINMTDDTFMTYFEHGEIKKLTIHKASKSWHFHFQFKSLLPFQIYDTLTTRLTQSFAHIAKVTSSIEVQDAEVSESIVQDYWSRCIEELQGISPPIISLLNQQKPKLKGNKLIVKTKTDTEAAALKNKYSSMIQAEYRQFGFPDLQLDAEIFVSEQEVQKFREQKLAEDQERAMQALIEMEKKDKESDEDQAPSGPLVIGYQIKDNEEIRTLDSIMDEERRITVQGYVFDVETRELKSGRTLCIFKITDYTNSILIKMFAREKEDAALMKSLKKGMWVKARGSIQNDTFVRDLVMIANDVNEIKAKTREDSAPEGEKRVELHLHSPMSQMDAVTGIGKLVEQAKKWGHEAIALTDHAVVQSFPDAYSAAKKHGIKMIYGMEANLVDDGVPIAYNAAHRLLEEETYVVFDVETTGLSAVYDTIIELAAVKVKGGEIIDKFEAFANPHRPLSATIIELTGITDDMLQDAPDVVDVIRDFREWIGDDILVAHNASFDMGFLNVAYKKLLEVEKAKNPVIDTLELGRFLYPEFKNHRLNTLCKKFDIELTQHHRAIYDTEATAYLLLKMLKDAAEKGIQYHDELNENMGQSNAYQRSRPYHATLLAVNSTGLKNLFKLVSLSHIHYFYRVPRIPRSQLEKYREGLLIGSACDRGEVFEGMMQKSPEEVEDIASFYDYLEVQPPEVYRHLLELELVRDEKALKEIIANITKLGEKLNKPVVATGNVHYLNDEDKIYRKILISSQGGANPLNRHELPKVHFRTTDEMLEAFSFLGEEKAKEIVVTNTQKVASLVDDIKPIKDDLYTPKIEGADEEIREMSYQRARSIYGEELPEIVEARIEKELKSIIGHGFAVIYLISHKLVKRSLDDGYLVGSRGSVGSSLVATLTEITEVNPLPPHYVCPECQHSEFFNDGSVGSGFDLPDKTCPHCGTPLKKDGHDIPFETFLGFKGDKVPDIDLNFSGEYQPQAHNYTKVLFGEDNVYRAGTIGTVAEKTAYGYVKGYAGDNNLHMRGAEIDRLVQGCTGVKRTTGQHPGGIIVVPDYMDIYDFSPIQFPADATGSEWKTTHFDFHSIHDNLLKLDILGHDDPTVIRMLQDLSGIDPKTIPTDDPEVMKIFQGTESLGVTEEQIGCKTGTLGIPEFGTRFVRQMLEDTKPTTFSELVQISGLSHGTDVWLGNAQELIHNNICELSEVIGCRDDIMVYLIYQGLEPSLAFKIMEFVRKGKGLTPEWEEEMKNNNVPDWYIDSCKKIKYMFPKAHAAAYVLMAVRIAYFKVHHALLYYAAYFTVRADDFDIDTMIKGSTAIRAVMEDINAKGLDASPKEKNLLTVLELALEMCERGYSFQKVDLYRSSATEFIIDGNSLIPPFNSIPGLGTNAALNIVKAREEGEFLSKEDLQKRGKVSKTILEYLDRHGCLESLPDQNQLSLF
T1 sequence (P10443 whole entry): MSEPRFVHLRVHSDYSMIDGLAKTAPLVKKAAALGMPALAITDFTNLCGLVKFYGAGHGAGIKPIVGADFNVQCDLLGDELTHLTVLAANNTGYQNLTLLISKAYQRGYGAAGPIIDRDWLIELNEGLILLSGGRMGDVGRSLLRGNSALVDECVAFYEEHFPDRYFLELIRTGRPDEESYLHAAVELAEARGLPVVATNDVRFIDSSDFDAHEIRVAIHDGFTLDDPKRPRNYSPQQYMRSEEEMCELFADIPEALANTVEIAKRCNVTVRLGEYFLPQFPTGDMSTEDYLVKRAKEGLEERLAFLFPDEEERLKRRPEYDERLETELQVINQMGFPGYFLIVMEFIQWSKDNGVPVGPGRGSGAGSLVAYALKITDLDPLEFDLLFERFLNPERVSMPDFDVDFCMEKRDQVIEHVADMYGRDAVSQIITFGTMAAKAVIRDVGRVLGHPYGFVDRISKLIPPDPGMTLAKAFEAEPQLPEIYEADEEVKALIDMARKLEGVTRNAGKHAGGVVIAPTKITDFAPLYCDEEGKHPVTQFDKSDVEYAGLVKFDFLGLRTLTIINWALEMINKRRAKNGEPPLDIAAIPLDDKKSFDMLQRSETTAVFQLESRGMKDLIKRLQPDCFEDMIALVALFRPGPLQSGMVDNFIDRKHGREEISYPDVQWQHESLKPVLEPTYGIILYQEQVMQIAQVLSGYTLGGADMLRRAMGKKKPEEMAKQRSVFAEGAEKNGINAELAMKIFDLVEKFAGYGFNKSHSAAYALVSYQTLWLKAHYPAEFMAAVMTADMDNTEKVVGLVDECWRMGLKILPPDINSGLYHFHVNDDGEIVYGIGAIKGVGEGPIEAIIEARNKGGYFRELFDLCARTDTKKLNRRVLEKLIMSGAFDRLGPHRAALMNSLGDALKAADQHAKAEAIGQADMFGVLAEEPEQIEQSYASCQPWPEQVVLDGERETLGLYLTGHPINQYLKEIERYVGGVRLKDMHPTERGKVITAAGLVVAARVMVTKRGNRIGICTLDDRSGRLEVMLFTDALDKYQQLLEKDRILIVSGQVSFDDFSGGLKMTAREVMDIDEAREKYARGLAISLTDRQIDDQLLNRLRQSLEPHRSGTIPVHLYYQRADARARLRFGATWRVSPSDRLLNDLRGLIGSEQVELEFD
T3 sequence (O34623 whole entry): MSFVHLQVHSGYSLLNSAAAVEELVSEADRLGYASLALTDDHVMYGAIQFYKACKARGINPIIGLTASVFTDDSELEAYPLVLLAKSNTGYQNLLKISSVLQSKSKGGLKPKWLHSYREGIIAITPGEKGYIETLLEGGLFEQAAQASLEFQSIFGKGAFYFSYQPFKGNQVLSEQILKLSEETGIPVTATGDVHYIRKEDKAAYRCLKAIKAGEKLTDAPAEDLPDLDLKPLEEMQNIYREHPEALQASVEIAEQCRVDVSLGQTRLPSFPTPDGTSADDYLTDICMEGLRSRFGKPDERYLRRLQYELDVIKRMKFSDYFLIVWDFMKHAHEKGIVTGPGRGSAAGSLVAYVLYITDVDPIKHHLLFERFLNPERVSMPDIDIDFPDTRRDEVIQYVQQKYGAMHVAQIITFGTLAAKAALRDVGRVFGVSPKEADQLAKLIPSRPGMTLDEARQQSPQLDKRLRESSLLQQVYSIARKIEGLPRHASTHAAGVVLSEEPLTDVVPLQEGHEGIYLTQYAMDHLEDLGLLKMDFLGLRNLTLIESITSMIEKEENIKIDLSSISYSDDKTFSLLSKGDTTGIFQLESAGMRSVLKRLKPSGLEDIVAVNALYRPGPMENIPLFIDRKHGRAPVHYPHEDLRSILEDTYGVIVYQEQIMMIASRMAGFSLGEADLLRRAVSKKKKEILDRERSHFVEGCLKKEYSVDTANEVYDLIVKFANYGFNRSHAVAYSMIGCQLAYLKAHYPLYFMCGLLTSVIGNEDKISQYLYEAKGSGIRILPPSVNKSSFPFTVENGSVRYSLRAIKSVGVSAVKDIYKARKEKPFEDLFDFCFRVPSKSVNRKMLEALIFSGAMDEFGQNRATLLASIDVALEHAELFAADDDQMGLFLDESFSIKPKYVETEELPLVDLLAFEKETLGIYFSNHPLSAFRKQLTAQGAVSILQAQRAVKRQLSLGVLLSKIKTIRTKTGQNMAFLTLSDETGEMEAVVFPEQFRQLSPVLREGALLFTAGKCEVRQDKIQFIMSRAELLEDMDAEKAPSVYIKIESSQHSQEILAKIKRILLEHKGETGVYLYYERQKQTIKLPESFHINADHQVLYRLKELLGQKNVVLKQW

Compound | Minimum Inhibitory Concentration for Bacterial Growth, Sa [1] [µg/mL] | Minimum Inhibitory Concentration for Bacterial Growth, Sm [2] [µg/mL] | Percent Enzymatic Inhibition E. coli pol IIIE [3] | Minimum Inhibitory Concentration for Bacterial Growth, Efcl [4] [µg/mL] | Percent Enzymatic Inhibition B. subtilis pol IIIC [5] | Minimum Inhibitory Concentration for Bacterial Growth, Ec [6] [µg/mL] | Minimum Inhibitory Concentration for Bacterial Growth, Efcm [7] [µg/mL] | Minimum Inhibitory Concentration for Bacterial Growth, VRE [8] [µg/mL] | Minimum Inhibitory Concentration for Bacterial Growth, Bs [9] [µg/mL] | Percent Enzymatic Inhibition B. subtilis pol IIIE [10] [%] | Minimum Inhibitory Concentration for Bacterial Growth, MRSA [11] [µg/mL]
COc1cccc(-c2cc(C(=O)NN=Cc3cccc(O)c3)[nH]n2)c1 [Compound 10] | >80 | >80 | Inactive | >80 | Inactive | >80 | >80 | >80 | >80 | 9.6 | >80
COc1cccc(C=NNC(=O)c2cc(-c3ccc(C)cc3)n[nH]2)c1O [Compound 8] | >80 | >80 | – | >80 | 19.7% | >80 | >80 | >80 | >80 | – | >80
O=C(NN=Cc1cc(Br)ccc1O)c1cc(-c2ccccc2)n[nH]1 [Compound 6] | 10 | >80 | 9.0% | 8 | 11.3% | >80 | 10 | 8 | >80 | 7.7 | 40
COc1cccc(-c2cc(C(=O)NN=Cc3ccc(O)cc3)[nH]n2)c1 [Compound 14] | 80 | 80 | Inactive | >80 | 0.5% | >80 | >80 | 80 | >80 | 18.1 | 80
COc1ccc(C=NNC(=O)c2cc(-c3ccc(Cl)cc3)n[nH]2)cc1OC [Compound 15] | 8 | >80 | Inactive | >80 | Inactive | >80 | 40 | >80 | >80 | 13.7 | >80
CCN1C(=O)C(=NNC(=O)c2cc(-c3ccccc3)n[nH]2)c2ccccc21 [Compound 20] | – | – | Inactive | – | 0.2% | – | – | – | – | 0.5 | –
CCN1C(=O)C(=NNC(=O)c2cc(-c3cccc(-c4ccccc4)c3)n[nH]2)c2ccccc21 [Compound 21] | >80 | >80 | – | >80 | – | >80 | >80 | >80 | >80 | – | >80
Cc1ccc(C=NNC(=O)c2cc(-c3ccccc3)n[nH]2)cc1 [Compound 11] | >80 | >80 | Inactive | >80 | 1.3% | >80 | >80 | >80 | >80 | 16.7 | >80
O=C(NN=Cc1ccccc1O)c1cc(-c2ccccc2)n[nH]1 [Compound 9] | >80 | >80 | – | >80 | – | >80 | >80 | >80 | >80 | – | >80
